According to US12648941B2, “Piperidine urea derivatives for use as inotropic agents” (Helsinn Healthcare SA, priority 2021, dated 2026):
Entries after “also recorded” stand apart in the source; their conditions may differ.

Experiments:
[1] = tested on: insulin-like growth factor-1 (IGF-1); assay: Phase 1 SAD pharmacodynamics, serum IGF-1 (ELISA); type: in vivo, human; conditions: 0.1-10 mg
Experimental: (§1) Blood samples for determination of growth hormone (GH), insulin-like growth factor-1 (IGF-1), adrenocorticotropic hormone (ACTH), prolactin, cortisol and aldosterone in serum at pre-dose and 0.5, 1, 2, 3, 4, 6 and 24 hours post-dose were collected by venous puncture. All biomarkers were determined using enzyme linked immunosorbent assays (ELISA). Simplified nutritional appetite questionnaire based on appetite assessments at Day −1 after dinner, and on Day 1 pre-dose, 1, 2, 4, 8, and 24 hours after dosing. Stool diary starting on Day 1 until discharge on Day 4.

[2] = Phase 1 SAD, stool diary; type: in vivo, human; conditions: between dose groups
Experimental: as §1

[3] = tested on: cortisol; assay: Phase 1 SAD pharmacodynamics, serum cortisol (ELISA); type: in vivo, human
Experimental: as §1

[4] = tested on: cardiomyocytes isolated from hearts of heart failure (HF) mice; assay: Cardiomyocyte contractility (fractional shortening, % FS), heart failure (MI) cardiomyocytes; type: cell-based, mouse; conditions: 1 μM
Experimental: Cardiomyocytes were isolated freshly from cardiac ventricles separately from SHAM and HF mice following the protocol developed by the Alliance for Cellular Signalling (AfCS Procedure Protocol ID PP00000125). From each of the 5 SHAM and 3 HF hearts a cell suspension was made and divided into 10 aliquots each, for a total of 50 aliquots from SHAM and 30 aliquots from HF hearts. These aliquots were treated with vehicle, AC01/HM01 or D-Lys3-GHPR-6+AC01/HM01 as stated and used for the subsequent physiological and biochemical experiments.
AC01/HM01 was suspended in phosphate buffer saline solution (PBS: in mM: NaCl 137, KCl 7, Na2HPO4 10, KH2PO4 […]) and diluted to obtain 3 different concentrations: 0.2, 0.5 or 1 μM in Tyrode solution. We used a concentration range within 0.2-1 μM to ensure that the receptor was activated. […]
Line scan fluorescence images were acquired using a confocal microscope (Biorad; 40× oil immersion lenses). […] ImageJ software (open source software developed by NIH, Bethesda, USA) was used to quantify changes in fluorescence (Ca^2+ transients) and contractility of single cardiomyocytes.
The contractility of cardiomyocytes was measured as the percent of length shortening (fractional shortening; % FS). […]

[5] = Phase 1 SAD, safety and tolerability; type: in vivo, human
Experimental: Single-center, randomized, double-blind, placebo-controlled, single ascending dose (SAD) study. Screening examinations were performed within 28 days prior to dosing. Eligible subjects returned to the study center in the morning of Day-1 and remained in-patient until discharge at 72 hours after dosing (morning of Day 4) if there were no safety issues. The oral dose was administered in the morning of Day 1. Subjects returned to the clinic 7 days after treatment, in the morning of Day 8 (±1 day), for the safety assessments. Adverse events (AEs), vital signs (blood pressure, pulse rate and body temperature), 12-lead ECG, Holter-ECG, physical examination (PE), and laboratory tests (hematology, clinical chemistry, and urinalysis) assessed during screening and several times throughout the study.

[6] = tested on: adrenocorticotropic hormone (ACTH); assay: Phase 1 SAD pharmacodynamics, serum ACTH (ELISA); type: in vivo, human; conditions: higher doses; ACTH determined only after 1.0 mg
Experimental: as §1

[7] = tested on: growth hormone (GH); assay: Phase 1 SAD pharmacodynamics, serum GH (ELISA); type: in vivo, human
Experimental: as §1

[8] = tested on: phospho (Ser 22-23) cardiac troponin I (cTnl); assay: Phospho (Ser 22-23) cTnl western blot in cardiomyocytes; type: cell-based, mouse; conditions: SHAM cardiomyocytes; 1 μM; western blot normalized to total cTnl
Experimental: AC01/HM01 was suspended in phosphate buffer saline solution (PBS: in mM: NaCl 137, KCl 7, Na2HPO4 10, KH2PO4 […]) and diluted to obtain 3 different concentrations: 0.2, 0.5 or 1 μM in Tyrode solution. We used a concentration range within 0.2-1 μM to ensure that the receptor was activated. […] Prior to contractility and Ca^2+ signaling measurements and biochemical assays, cardiomyocyte suspensions from SHAM and HF hearts were randomized to 3 types of treatments: vehicle, AC01/HM01, or D-Lys3-GHPR-6+AC01/HM01. The treatment with different agents occurred for 15 minutes at room temperature. Some cell suspension aliquots were flash frozen in liquid N2 and stored at −80° C. for later biochemistry analyses. All the experiments were conducted blinded regarding the treatment of cardiomyocytes.
Aliquots of frozen cardiomyocyte suspensions were lysed using NP40 buffer (Thermo Fisher FNN0021, Stockholm, Sweden) supplemented with phosphatase inhibitors (Sigma-Aldrich P2850-1ML, P5726-1ML, Stockholm, Sweden). Protein lysates were separated by electrophoresis and transferred onto membranes. Membranes were incubated with primary antibody: rabbit anti phospho (Ser 22-23) cardiac troponin I (cTnl, Cell Signalling, Leiden, The Netherlands #4004S) and rabbit anti-cTnl (Cell Signalling #4002S, Leiden, The Netherlands). Thereafter, infrared-labelled secondary antibodies (IRDye 680 and IRDye 800, 1:5000, Licor) were used. Immunoreactive bands were analyzed using the Odyssey Infrared Imaging System (Li-Cor, Bad Homburg, Germany). Band densities were quantified with Image J (NIH, Bethesda, USA), normalized to total cTnl and final data was expressed as fold increase compared to bands representing protein extracted from vehicle treated cells.

[9] = Phase 1 SAD, simplified nutritional appetite questionnaire; type: in vivo, human; conditions: 0.1-10 mg
Experimental: as §1

[10] = tested on: aldosterone; assay: Phase 1 SAD pharmacodynamics, serum aldosterone (ELISA); type: in vivo, human
Experimental: as §1

What does the source list for `COc1ccc([C@H](C)NC(=O)N(C)[C@@H]2CCN(C)CC2(C)C)c(Cl)c1Cl.Cl` [AC01/HM01, 1-[(1S)-1-(2,3-dichloro-4-methoxyphenyl)ethyl]-3-methyl-3-[(4R)-1-methyl-3,3-dimethyl-4-piperidyl]-urea]?
IGF-1 serum levels, dose groups vs placebo [1]: No relevant differences; number of bowel movements per day and number of subjects with bowel movement [2]: no dose-related differences; concentrations of cortisol ([3]; 1.0 and 10 mg HM01): rapidly increased above baseline values; cortisol increase, comparison of doses ([3]; 1.0 vs 10 mg): similar; contractility, fractional shortening (FS %) vs vehicle [4]: significant increase of contractility; also recorded: positively responded; TEAEs reported ([5]; 0.1 mg): no TEAEs; number of TEAEs ([5]; 0.3 mg): 5 TEAEs; number of TEAEs ([5]; 1.0 mg): 7 TEAEs; subjects reporting TEAEs of moderate intensity ([5]; 1.0 mg, hot flush): 1 subject; number of TEAEs ([5]; 10 mg): 19 TEAEs; subjects reporting TEAEs of moderate intensity ([5]; 10 mg, sinus bradycardia): 1 subject; number of subjects reporting TEAEs and number of TEAEs, dose dependence ([5]; 0.1-10 mg single oral dose): increased dose-dependently; mean systolic and diastolic blood pressure and body temperature ([5]; after dosing / between treatment groups): no clinically relevant changes; intensity of TEAEs ([5]; all dose groups): Most TEAEs were of mild intensity; laboratory parameters, differences between dosing groups ([5]; in vivo): no clinically relevant differences; most frequently reported TEAEs ([5]; started mainly shortly after dosing, short duration): nervous system disorder (mainly headache) and cardiac disorders (mainly sinus bradycardia); concentrations of ACTH [6]: rapidly increased above baseline values; GH increase ([7]; 0.3 and 0.1 mg HM01): lower increases; GH increase ([7]; 1.0 and 10 mg HM01): higher; mean GH curves, comparison of doses ([7]; 1.0 vs 10 mg HM01): similar; time of peak GH concentrations ([7]; after single oral administration): 2-3 hours post-dose; concentrations of GH vs baseline ([7]; after single oral administration, healthy males): increased from baseline; phosphorylation of cTnl (Serine 22-23) vs vehicle [8]: decreased phosphorylation levels; also recorded: reduced the levels of phosphorylation; appetite questionnaire, dose groups vs placebo [9]: no relevant or consistent differences; concentrations of aldosterone ([10]; 1.0 and 10 mg HM01): rapidly increased above baseline values; aldosterone increase, comparison of doses ([10]; 1.0 vs 10 mg): similar
